Laboratory results as given in PubChem BioAssay (NCI).
Where “and” joins values, the source holds several entries; their conditions need not be identical. Equal entries are not always repeated.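 Values below derive from 48-hour exposures of cells grown in 96-well plates, with endpoints linearly interpolated between the two concentrations bracketing the appropriate inhibition level. GI50 = concentration required for 50% inhibition of growth. Definition used: TGI = concentration required for complete inhibition of growth.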

Key:
Experiment in all cases: DTP human tumour cell line panel, 48 h
A549 NSCLC = tested on: A549 NSCLC
PC-3 prostate = tested on: PC-3 prostate
SK-OV-3 ovarian = tested on: SK-OV-3 ovarian
IGROV1 ovarian = tested on: IGROV1 ovarian
NCI-H522 lung = tested on: NCI-H522 lung
OVCAR-8 ovarian = tested on: OVCAR-8 ovarian
OVCAR-5 ovarian = tested on: OVCAR-5 ovarian
SF-295 CNS = tested on: SF-295 CNS
SNB-19 CNS = tested on: SNB-19 CNS
BT-549 breast = tested on: BT-549 breast

SMILES	GI50 (A549 NSCLC)	TGI (A549 NSCLC)	GI50 (PC-3 prostate)	TGI (PC-3 prostate)	GI50 (SK-OV-3 ovarian)	TGI (SK-OV-3 ovarian)	GI50 (IGROV1 ovarian)	TGI (IGROV1 ovarian)	GI50 (NCI-H522 lung)	TGI (NCI-H522 lung)	GI50 (OVCAR-8 ovarian)	TGI (OVCAR-8 ovarian)	GI50 (OVCAR-5 ovarian)	TGI (OVCAR-5 ovarian)	GI50 (SF-295 CNS)	TGI (SF-295 CNS)	GI50 (SNB-19 CNS)	TGI (SNB-19 CNS)	GI50 (BT-549 breast)	TGI (BT-549 breast)
COc1cc(-c2cc(-c3ccc(Nc4nc(Nc5ccc(Cl)cc5)nc(Nc5ccc(Cl)cc5)n4)cc3)no2)cc(OC)c1OC	13.5 µM	> 100 µM	0.565 µM	9.19 µM	> 100 µM	> 100 µM	3.22 µM	> 100 µM	2.89 µM	> 100 µM	36 µM	> 100 µM	27.3 µM	> 100 µM	35.1 µM	> 100 µM	26.8 µM	> 100 µM	13.9 µM	> 100 µM
CNC(=O)c1cc(Oc2ccc(NC(=O)Nc3ccc(Cl)c(C(F)(F)F)c3)cc2)ccn1	3.03 µM and 2.57 µM and 2.92 µM	> 10 µM and 11.5 µM and 13.6 µM	2.2 µM and 2.6 µM and 2.14 µM	8.51 µM and 8.9 µM and 8.57 µM	3.14 µM and 3.28 µM and 2.5 µM	9.87 µM and 12.5 µM and 7.31 µM	3.52 µM and 3.44 µM and 2.6 µM	> 10 µM and 15.3 µM and 9.14 µM	1.79 µM and 2.14 µM and 2.06 µM	5.79 µM and 5.64 µM and 6.29 µM	3 µM and 2.91 µM and 3.03 µM	> 10 µM and 9.06 µM and 20.2 µM	3.54 µM and 4.39 µM and 3.11 µM	> 10 µM and 19.9 µM and 15.7 µM	2.34 µM and 1.83 µM and 1.69 µM	> 10 µM and 5.33 µM and 4.56 µM	4.75 µM and 4.38 µM and 3.47 µM	> 10 µM and 17.7 µM and 11.8 µM	3.01 µM and 2.29 µM and 3.16 µM	> 10 µM and 5.23 µM and 8.69 µM
Clc1ccc(Nc2nnc(COc3ccccc3)c3ccccc23)cc1	2.87 µM	12.3 µM	1.3 µM	10.1 µM	2.38 µM	9.96 µM	1.14 µM	6.37 µM	0.354 µM	4.04 µM	3.49 µM	15 µM	3.88 µM	15.4 µM	1.65 µM	6.7 µM	3.2 µM	12 µM	2.05 µM	6.65 µM
OC(CBr)C(O)C(O)C(O)CBr (stereo unspecified)		> 100 µM		> 100 µM		> 100 µM	49.4 µM and > 100 µM	> 100 µM		> 100 µM		> 100 µM		> 100 µM	23.2 µM and > 72.9 µM	> 100 µM	36 µM and > 100 µM	> 100 µM		> 77 µM
S=C1NC(c2ccccc2)NC(c2ccccc2)S1 (stereo unspecified)		> 100 µM		> 100 µM		> 100 µM		> 100 µM		> 100 µM		> 100 µM		> 100 µM		> 100 µM		> 100 µM		> 100 µM
C=C1CC2(CC(c3ccccc3C)OC(c3ccccc3C)C2)OC1=O (stereo unspecified)		19.4 µM		5.78 µM		24.2 µM		3.25 µM		3.23 µM		4.63 µM		26.5 µM		29.4 µM		30.8 µM		4.09 µM
Fc1ccc(Nc2ccnc(N3CCN(c4ccnc5cc(Cl)ccc45)CC3)n2)cc1	2.66 µM	> 100 µM	1.73 µM	8.33 µM	5.02 µM	> 100 µM	3.38 µM	30.9 µM	2.03 µM	5.38 µM	2.16 µM	6.12 µM	3.82 µM	> 100 µM	1.33 µM	3.2 µM	3.99 µM	> 100 µM	2.95 µM	8.57 µM
C=C1C(=O)O[C@H]2[C@H]1CC/C(COC(=O)NCCc1ccc(Br)cc1)=C\CC[C@@]1(C)O[C@@H]21	2.59 µM	6.17 µM	1.73 µM	3.32 µM	10.8 µM	22.8 µM	1.08 µM	2.59 µM	1.16 µM	2.73 µM	1.49 µM	3.69 µM	1.96 µM	4.47 µM	3.81 µM	15.5 µM	1.39 µM	2.97 µM	1.1 µM	2.6 µM
CN1c2cccc[c]2[Sn]([CH3])([CH3])[c]2ccccc21	< 0.0132 µM	0.0932 µM	0.0191 µM	0.154 µM	< 0.0144 µM	< 0.0326 µM	< 0.0166 µM	0.14 µM	0.0102 µM	0.0262 µM	< 0.0134 µM	< 0.023 µM	< 0.0115 µM	0.264 µM	< 0.0165 µM	< 0.034 µM	0.0212 µM	0.215 µM	< 0.01 µM	0.165 µM
CC(=O)Nc1ccc2c(c1)[nH]c(=O)c1cc(NC(C)=O)ccc12	> 100 µM	> 100 µM	> 100 µM	> 100 µM	> 100 µM	> 100 µM	> 100 µM	> 100 µM	> 100 µM	> 100 µM	> 100 µM	> 100 µM	> 100 µM	> 100 µM	> 100 µM	> 100 µM	> 100 µM	> 100 µM	> 100 µM	> 100 µM
CCN(CC(O)COc1ccc2c(c1)[n+]([O-])nc(N)[n+]2[O-])C(C)=O (stereo unspecified)		> 100 µM		> 100 µM		> 100 µM		> 100 µM		> 100 µM		> 100 µM		> 100 µM		> 100 µM		> 100 µM		> 100 µM
O=C(Nc1n[nH]c2cc(-c3ccc(F)cc3)ccc12)C1CC1	10.5 µM	> 25 µM	7.98 µM	> 25 µM	6.24 µM	20.3 µM	> 21.8 µM	> 25 µM	4.92 µM	> 21.1 µM	12.8 µM	> 25 µM	14.8 µM	> 25 µM	9.07 µM	24.6 µM	12.6 µM	> 25 µM	12.4 µM	> 25 µM
CCN(Cc1c(F)cccc1C(F)(F)F)c1ccc(CO)c(Cl)c1	5.56 µM	23.1 µM	12.3 µM	25.3 µM	13.7 µM	26.8 µM	< 0.0338 µM		12.6 µM	27 µM	14.6 µM	31.3 µM	< 0.0249 µM	0.205 µM		1.12 µM	14.9 µM	29.1 µM	17.7 µM	32 µM
COc1cc(/C=C/[N+](=O)[O-])cc(OC)c1	3.94 µM	16.8 µM	2.94 µM	8.38 µM	11.1 µM	23.1 µM	2.83 µM	8.63 µM	1.39 µM	3.14 µM	3.72 µM	13.9 µM	3.66 µM	13.4 µM	2.54 µM	7.29 µM	8.49 µM	22.1 µM	1.85 µM	3.65 µM
